Measured values from US20060135500A1, “Novel oral pharmaceutical suspension of cefdinir crystal” (Astellas Pharma Inc., priority 2004, published 2006).

Tests used:
Format in all cases: physicochemical
[1] = Dispersibility comparison assay, Method 1 (visual observation of suspension in test tube); conditions: summary statement
Protocol: The dispersibility of two crystal forms of Cefdinir was compared by evaluating sedimentation rates of two crystal forms. The evaluating sedimentation rate was conducted by using two methods as follow. About 1250 mg of crystal form A or the monohydrate were dispersed in 50 mL of water (125 mg/5 mL), and the suspensions were vigorously shaken by hand. […] The pictures of suspension states were taken with time.

[2] = Dispersibility comparison assay, Method 2 (change of transmittance at 650 nm); conditions: 5 mg in 10 mL of water (0.5 mg/mL)
Protocol: The dispersibility of two crystal forms of Cefdinir was compared by evaluating sedimentation rates of two crystal forms. The evaluating sedimentation rate was conducted by using two methods as follow.
5 mg of crystal form A or the monohydrate were dispersed in 10 mL of water (sample concentration: 0.5 mg/mL), and the suspensions were vigorously shaken. Then, the dispersed suspensions were transferred in the cell for UV measurement, and changes of the transmittances at 650 nm were measured.

[3] = Solvent medium transformation (suspension in water or ethanol, PXRD of residual solid); conditions: water or ethanol (99.5), room temperature
Protocol: Form A and the monohydrate were suspended in water or ethanol (99.5) at room temperature, and the powder X-ray diffraction (PXRD) patterns of the residual solid materials were measured (Bruker AXS D8 Discover with GADDS).

SMILES | dispersibility in aqueous solvent [1] | sedimentation rate in aqueous solvent [1] | change of transmittance of suspension at 650 nm [2] | crystalline conversion in aqueous and ethanol suspensions (PXRD of residual solid) [3]
C=CC1=C(C(=O)O)N2C(=O)C(NC(=O)C(=NO)c3csc(N)n3)[C@H]2SC1 (single isomer, unassigned) [crystal form C, 7-[2-(2-aminothiazol-4-yl)-2-hydroxyiminoacetamido]-3-vinyl-3-cephem-4-carboxyl ic acid (syn isomer)] | higher than that of crystal form A | lower than that of crystal form A |  | 
C=CC1=C(C(=O)O)N2C(=O)C(NC(=O)C(=NO)c3csc(N)n3)[C@H]2SC1 (single isomer, unassigned) [form A, 7-[2-(2-aminothiazol-4-yl)-2-hydroxyiminoacetamido]-3-vinyl-3-cephem-4-carboxyl ic acid (syn isomer)] |  |  | faster increase than that of the monohydrate | no crystalline conversion to other crystal form
